The target in assay [1] is T1, MK2 (Rattus norvegicus, UniProt Q80ZF4).
T1 construct: endogenous in cells; host or cells: rat microvascular endothelial cells (RMVEC)
Briefly: ELISA MK2 cell-based activity assay (phospho-HSP-27), RMVEC cells. To be noted: compound 20 μM, 30 minutes, 37° C.; for Average Response HSP27: phospho-HSP27 ELISA. As for the experimental part: (§1) The MK2 activator candidates, identified using the artificial intelligence (AI)-assisted docking approach, were tested in activity assays for lead selection against the MK2 target. MK2 activation was assessed using (a) a cell-based assay using rat microvascular endothelial cells (RMVEC) and (b) human cancer skin fibroblast cells (Malme-3M). In both assays, an Enzyme-linked ImmunoSorbent Assay (ELISA) technique was used to measure (HSP-27) phosphorylation (DYC2314-2, R&D Systems). Both cell lines were grown to confluency in a 96-well tissue culture plate and treated at 37° C. for 30 minutes with the test compounds at concentrations of 20 μM. The cells were subsequently lysed with a lysis solution containing 0.5% Triton X-100 and anti-proteolysis agents. The resulting lysates were then loaded onto ELISA plates coated with anti-rat phospho-HSP27. After incubation and washing, the plates were treated with an horseradish peroxidase (HRP)-conjugated anti-phospho-HSP27 secondary antibody and then measured for chemiluminescence. Higher activity compounds, acting on MK2, induced higher levels of HSP-27 phosphorylation, as measured by the ELISA.

In assay [2] the target is T2, MK2 (Homo sapiens, UniProt P49137).
T2 construct: endogenous in cells; host or cells: Malme-3M
Briefly: ELISA MK2 cell-based activity assay (phospho-HSP-27), Malme-3M cells. To be noted: for Ratio to Control / Pho-HSP27: Malme-3M cells, compound 20 μM, 30 minutes, 37° C.; for Pho-HSP27: phospho-HSP27 ELISA. As to the method: as §1

Counter-ions that a name gives are not always drawn.

T1 sequence (Q80ZF4 1-386): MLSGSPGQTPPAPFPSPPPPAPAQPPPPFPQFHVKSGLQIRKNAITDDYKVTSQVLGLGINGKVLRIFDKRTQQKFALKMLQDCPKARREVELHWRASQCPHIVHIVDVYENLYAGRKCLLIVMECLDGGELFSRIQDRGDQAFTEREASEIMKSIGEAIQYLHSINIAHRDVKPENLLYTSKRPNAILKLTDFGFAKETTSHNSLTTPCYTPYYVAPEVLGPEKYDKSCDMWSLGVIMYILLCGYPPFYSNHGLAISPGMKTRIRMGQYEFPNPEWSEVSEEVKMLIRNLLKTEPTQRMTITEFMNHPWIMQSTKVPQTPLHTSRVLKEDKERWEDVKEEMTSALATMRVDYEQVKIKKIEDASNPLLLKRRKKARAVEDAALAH
T2 sequence (P49137 whole entry): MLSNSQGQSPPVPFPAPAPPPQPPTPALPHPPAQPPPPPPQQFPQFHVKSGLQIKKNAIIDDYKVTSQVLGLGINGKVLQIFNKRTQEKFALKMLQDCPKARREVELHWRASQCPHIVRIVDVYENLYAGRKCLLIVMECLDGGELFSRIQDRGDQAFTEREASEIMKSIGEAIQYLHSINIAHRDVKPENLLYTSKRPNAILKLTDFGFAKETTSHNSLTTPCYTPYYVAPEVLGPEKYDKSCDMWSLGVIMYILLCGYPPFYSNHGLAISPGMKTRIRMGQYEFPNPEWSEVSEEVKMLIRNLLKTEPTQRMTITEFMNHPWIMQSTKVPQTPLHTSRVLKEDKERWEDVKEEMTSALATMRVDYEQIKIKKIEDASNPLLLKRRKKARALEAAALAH

With `Cl.Cl.OCCN1CCN(CCC=C2c3ccccc3Sc3ccc(C(F)(F)F)cc32)CC1` (mixture of isomers) [Flupenthixol dihydrochloride], on MK2 [1], the “Ratio Compound/control” value was 1.1 and the “Average Response HSP27” value amounted to 10.4 pg/mL.
On to `c1cc(OCCN2CCCCC2)cc(-c2n[nH]c3ccc(-c4nc[nH]n4)cc23)c1` [CC-401 Hydrochloride], for which, at MK2 [1], the “Ratio Compound/control” value is given as 0.9 and the “Average Response HSP27” value was 6.3 pg/mL.
Turning to `Cc1ccccc1-c1cc(N2CCN(C)CC2)ncc1N(C)C(=O)C(C)(C)c1cc(C(F)(F)F)cc(C(F)(F)F)c1` [Compound 9, Netupitant], on MK2 [1], the “Ratio Compound/control” value was found to be 0.7 and the “Average Response HSP27” value is on record as 2.7 pg/mL.
With `COc1ccc(-c2ccc3ncc4c(c3c2)n(-c2ccc(N3CCNCC3)c(C(F)(F)F)c2)c(=O)n4C)cn1` [Compound 14, Bgt-226], on MK2 [1], the “Ratio Compound/control” value was determined as 1.1 and the “Average Response HSP27” value is 19.4 pg/mL. Moreover, at MK2 [2], the “Ratio to Control” value is 1.2 and the Pho-HSP27 worked out at 26.9 pg/mL.
In the case of `Cc1nc2n(c(=O)c1CCN1CCC(c3noc4cc(F)ccc34)CC1)CCCC2O` (stereo not shown) [Compound 20, Paliperidone], at MK2 [1], the “Ratio Compound/control” value amounted to 1.1 and the “Average Response HSP27” value came to 4.3 pg/mL.
`O=C1[C@H]2CCCC[C@H]2C(=O)N1CCCCN1CCN(c2nsc3ccccc23)CC1` [Compound 23, Perospirone]: on MK2 [2], the “Ratio to Control” value turned out to be 32.0 and the Pho-HSP27 amounted to 720.7 pg/mL. Also, the “response in phospho-HSP27 ELISA, overall ranking” value on MK2 [2] (overall statement on compounds tested at 20 μM (Malme-3M and RMVEC cells)) was “most robust response”.
As to `O=C1Cc2cc(CCN3CCN(c4nsc5ccccc45)CC3)c(Cl)cc2N1` [Compound 24, Ziprasidone], on MK2 [2], the “Ratio to Control” value is given as 1.6 and the Pho-HSP27 is reported as 35.4 pg/mL.
On to `COc1cc2ncnc(Oc3cccc(NC(=O)Nc4cc(C(C)(C)C(F)(F)F)on4)c3)c2cc1OC` [Compound 27, Cep-32496], for which, at MK2 [1], the “Ratio Compound/control” value was 0.9 and the “Average Response HSP27” value was 6.2 pg/mL.
On to `CCn1cc(-c2ccnc3[nH]c(-c4cccc(CN(C)C)c4)cc23)c(-c2ccc(NC(=O)N(C)C)cc2)n1` [Compound 28, Gsk-1070916], for which, at MK2 [1], the “Ratio Compound/control” value is reported as 0.2 and the “Average Response HSP27” value is recorded as 0.9 pg/mL.
`C[C@@H](Oc1cc(-n2cnc3ccc(CN4CCN(C)CC4)cc32)sc1C(N)=O)c1ccccc1C(F)(F)F` [Compound 29, Gsk-461364]: on MK2 [1], the “Ratio Compound/control” value is recorded as 1.8 and the “Average Response HSP27” value came out at 39.0 pg/mL. For the same compound, on MK2 [2], the “Ratio to Control” value came to 1.0 and the Pho-HSP27 is reported as 22.1 pg/mL.
Consider `Cn1cc(-c2ccc(F)c(C(F)(F)F)c2)nc1C1CCN(c2ncnc3[nH]ncc23)CC1` [Compound 30, Ly-2584702], for which, on MK2 [1], the “Ratio Compound/control” value came to 0.3 and the “Average Response HSP27” value came to 0.0 pg/mL.
As to `Cc1csc(-c2nnc(Nc3ccc(Oc4ncccc4-c4ccnc(N)n4)cc3)c3ccccc23)c1` [Compound 33, Amg- 900], on MK2 [1], the “Ratio Compound/control” value was found to be 1.6 and the “Average Response HSP27” value is 20.4 pg/mL. Further, on MK2 [2], the “Ratio to Control” value is reported as 0.9 and the Pho-HSP27 was determined as 21.2 pg/mL.
Regarding `C=CCn1c(=O)c2cnc(Nc3ccc(N4CCN(C)CC4)cc3)nc2n1-c1cccc(C(C)(C)O)n1` [Compound 36, Azd-1775], at MK2 [1], the “Ratio Compound/control” value was determined as 0.9 and the “Average Response HSP27” value is listed as 21.4 pg/mL. In addition, on MK2 [2], the “Ratio to Control” value came out at 0.7 and the Pho-HSP27 was determined as 15.7 pg/mL.
Taken in the same sequence, the figures for `FC(F)(F)c1ccc(/C=C/c2nc(COc3ccc(CCCCn4ccnn4)cc3)co2)cc1` [Compound 37, Mubritinib] were 1.6, 34.0 pg/mL, 1.6 and 36.8 pg/mL.
In the case of `Cc1nc(Nc2[nH]nc3c2CN(C(=O)N[C@H](CN(C)C)c2ccccc2)C3(C)C)c2sccc2n1` [Compound 39, Pf-03758309], at MK2 [1], the “Ratio Compound/control” value amounted to 1.0 and the “Average Response HSP27” value is given as 4.8 pg/mL.
For `CC(C)c1cc(CNc2nc(Nc3cc(C4CC4)[nH]n3)cc(N3CCN(C)CC3)n2)on1` [Compound 43, Xl-228], on MK2 [1], the “Ratio Compound/control” value is on record as 0.4 and the “Average Response HSP27” value turned out to be 5.7 pg/mL.
Consider `CC(=O)N1CCN(CCOc2ccc(C3CCN(C4=Nn5c(nnc5C(F)(F)F)CC4)CC3)cc2)CC1` [Compound 44, Azd3514], for which, at MK2 [1], the “Ratio Compound/control” value is given as 0.9 and the “Average Response HSP27” value came to 5.9 pg/mL.
On to `CCS(=O)(=O)c1cccc(-c2cc(C(=O)NC3CCN(C)CC3)c(C)c3[nH]c4ncc(C)cc4c23)c1` [Compound 46, Tak-901], for which, at MK2 [1], the “Ratio Compound/control” value was determined as 0.2 and the “Average Response HSP27” value is -0.2 pg/mL.
With `Cn1c(Nc2ccc(C(F)(F)F)cc2)nc2cc(Oc3ccnc(-c4ncc(C(F)(F)F)[nH]4)c3)ccc21` [Compound 47, Chir-265], on MK2 [1], the “Ratio Compound/control” value is listed as 0.9 and the “Average Response HSP27” value is 8.5 pg/mL.
For `Cc1c(NC(=O)OC[C@@H]2COCCN2)cn2ncnc(Nc3ccc4c(cnn4Cc4cccc(F)c4)c3)c12` [Compound 49, Ac-480] the same measures were 1.3 and 12.1 pg/mL.
For the compound `CCN1CCN(Cc2ccc(NC(=O)Nc3ccc(Oc4cc(NC)ncn4)cc3)cc2C(F)(F)F)CC1` [Compound 55, Ast-487], on MK2 [1], the “Ratio Compound/control” value is listed as 1.3 and the “Average Response HSP27” value amounted to 9.0 pg/mL.
In the case of `Cc1cc(Nc2cc(N3CCN(C)CC3)nc(/C=C/c3ccccc3)n2)n[nH]1` [Compound 56, Enmd-2076], on MK2 [1], the “Ratio Compound/control” value is 0.3 and the “Average Response HSP27” value was found to be 4.6 pg/mL.
On to `CNCc1ccc(C)c(NC(=O)c2ccc(Nc3nc(-c4ccccc4)c4ccccc4n3)cc2)c1` [Compound 57, Bms - 833923], for which, on MK2 [1], the “Ratio Compound/control” value is reported as 1.3 and the “Average Response HSP27” value is on record as 8.8 pg/mL.
For `Cc1oncc1C(=O)Nc1ccc(C(F)(F)F)cc1` [Compound 72, Leflunomide] the same measures were 1.3 and 5.2 pg/mL.
For `CCc1cc(/C(C)=N/OCc2ccc(C3CCCCC3)c(C(F)(F)F)c2)ccc1CN1CC(C(=O)O)C1` [Compound 76, Siponimod] the same measures were 1.0 and 6.6 pg/mL.
With `COCCOc1ccc(N2CCN(CCn3ncc4c3nc(N)n3nc(-c5ccco5)nc43)CC2)cc1` [Compound 106, Preladenant], at MK2 [1], the “Ratio Compound/control” value was found to be 0.9 and the “Average Response HSP27” value was determined as 4.2 pg/mL.
In the case of `CC(C)Nc1cccnc1N1CCN(C(=O)c2cc3cc(NS(C)(=O)=O)ccc3[nH]2)CC1` [Compound 108, Delavirdine], at MK2 [2], the “Ratio to Control” value turned out to be 0.8 and the Pho-HSP27 came out at 17.3 pg/mL.
For the compound `NC(=O)[C@@H](CCC(F)(F)F)N(Cc1ccc(-c2ncon2)cc1F)S(=O)(=O)c1ccc(Cl)cc1` [Compound 115, Avagacestat], on MK2 [1], the “Ratio Compound/control” value turned out to be 0.8 and the “Average Response HSP27” value was found to be 5.7 pg/mL.
On to `OCC(O)CN1CCN(c2ccccc2)CC1` (stereo not shown) [Dropropizine], for which, at MK2 [1], the “Ratio Compound/control” value is listed as 0.1 and the “Average Response HSP27” value is reported as 1.2 pg/mL.
`O=C(Nc1cccc(C2=NCCN2)c1)Nc1cccc(C2=NCCN2)c1` [Imidocarb dipropionate]: at MK2 [1], the “Ratio Compound/control” value is reported as 1.3 and the “Average Response HSP27” value was found to be 11.7 pg/mL.
For `N=C(N)c1ccc2cc(OC(=O)c3ccc(N=C(N)N)cc3)ccc2c1` [Nafamostat Mesylate] the same measures were 1.3 and 11.7 pg/mL.
Regarding `O=C1[C@H]2CCCC[C@H]2C(=O)N1CCCCN1CCN(c2nsc3ccccc23)CC1` [Perospirone hydrochloride], at MK2 [1], the “Ratio Compound/control” value was found to be 2.2 and the “Average Response HSP27” value amounted to 43.2 pg/mL.
For `Cc1cc(N2CCN([C@@H]3CN[C@H](C(=O)N4CCSC4)C3)CC2)n(-c2ccccc2)n1` [Teneligliptin hydrobromide] the same measures were 0.8 and 4.0 pg/mL.
For the compound `O=C1Cc2cc(CCN3CCN(c4nsc5ccccc45)CC3)c(Cl)cc2N1` [Ziprasidone HCl], at MK2 [1], the “Ratio Compound/control” value worked out at 1.5 and the “Average Response HSP27” value amounted to 32.3 pg/mL.
For `Cl.Cl.Cl.O[C@@H](COc1cccc2ncccc12)CN1CCN([C@@H]2c3ccccc3[C@@H]3[C@H](c4ccccc42)C3(F)F)CC1` [Zosuquidar (LY335979) 3HCl] the same measures were 0.7 and 11.8 pg/mL.
Turning to Delavirdine (mesylate), on MK2 [1], the “Ratio Compound/control” value is on record as 1.1 and the “Average Response HSP27” value is recorded as 18.4 pg/mL.
In the case of “MK2-AP (batch#2): presumably the positively charged MK2-activating peptide YARAAARQARAHPRNPARRTPGTRRGAPAA (SEQ ID NO: 7) (MK2 peptide fragment)”, in the assay with MK2 [1], the “Ratio Compound/control” value came out at 2.7 and the “Average Response HSP27” value is recorded as 11.7 pg/mL.

The record behind these values is patent US20230414575A1, “MK2 ACTIVATING COMPOUNDS FOR USE IN TREATING VASCULAR LEAK AND ENDOTHELIAL BARRIER DISORDERS” (Akttyva Therapeutics, Inc., priority 2020, published 2023).
